Assay results as given in patent US8642284B1, “Methods for identifying agents that alter NAD-dependent deacetylation activity of a SIR2 protein” (Massachusetts Institute of Technology, priority 1999, dated 2014).
Entries after “also recorded” stand apart in the source; their conditions may differ.

Tests used:
Sir2p [1] = biological target: T1, Sir2p (Saccharomyces cerevisiae, UniProt P06700); assay: ADP-ribosylation and NAD hydrolysis by recombinant yeast Sir2p (intact histone H3, H3 peptide; SDS-PAGE, TLC); format: biochemical; details: 200 μM; for inhibition of NAD hydrolysis by Sir2p: H3 peptide, TLC; for inhibition of ADP-ribosylation by Sir2p: intact histone H3 and H3 peptide
T1 construct: purified recombinant yeast (rSir2p) protein, mouse Sir2 (mSir2α) proteins and vector controls; 6×His; made in house; host or cells: E. coli BL21 (DE3), pET28a
T1 sequence (P06700 whole entry): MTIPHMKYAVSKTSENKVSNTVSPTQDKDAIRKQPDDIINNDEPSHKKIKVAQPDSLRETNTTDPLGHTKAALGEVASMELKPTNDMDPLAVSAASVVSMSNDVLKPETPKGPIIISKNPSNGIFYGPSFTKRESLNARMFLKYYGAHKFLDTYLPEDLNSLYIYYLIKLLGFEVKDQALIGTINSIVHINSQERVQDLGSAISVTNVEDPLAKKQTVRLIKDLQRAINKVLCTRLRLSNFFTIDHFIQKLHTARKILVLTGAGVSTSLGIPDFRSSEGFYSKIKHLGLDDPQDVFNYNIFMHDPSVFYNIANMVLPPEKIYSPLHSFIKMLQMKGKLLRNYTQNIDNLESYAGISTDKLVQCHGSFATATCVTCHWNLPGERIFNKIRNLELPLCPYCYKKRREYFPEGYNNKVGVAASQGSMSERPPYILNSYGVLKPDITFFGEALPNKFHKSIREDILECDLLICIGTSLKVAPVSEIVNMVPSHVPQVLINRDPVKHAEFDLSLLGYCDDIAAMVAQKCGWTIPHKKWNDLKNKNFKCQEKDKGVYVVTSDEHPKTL
Procedure: (§1) The typical reaction was performed in 50 or 100 μl of the buffer containing 5 mM Tris-HCl [pH8.0 or 9.0], 4 mM MgCl2, 0.2 mM DTT, 1 μM cold β-NAD^+ (SIGMA®) and 8 μCi nicotinamide adenine dinucleotide 5′[α-^32P]triphosphate (NAD) as a donor of ADP-ribose (˜1000 Ci/mmol, Amersham Pharmacia Biotech). To check the sensitivity to poly- or mono-ADP-ribosylation inhibitors, 3-aminobenzamide (ICN Pharmaceuticals, CA), benzamide, novobiocin and coumermycin A1 (SIGMA®) were added to the reactions prior to adding Sir2 proteins, respectively. The wild type or mutant recombinant proteins (0.5-1 μg for ySir2p and 10 μg of mSir2α) were added with 4 μg of each histone purchased from Roche Molecular Biochemicals (Indianapolis, Ind.). For the peptide experiments, 5-10 μg of unacetylated or acetylated N-terminal tail peptides (amino acids 1-20) of H3 and H4 purchased from Upstate Biotechnology™ (Lake Placid, N.Y.) were used as substrates of the yeast and mouse Sir2 recombinant proteins.
(§2) The typical reaction of Sir2 deacetylase activity was performed in 50 μl of buffer containing 50 mM Tris-HCl [pH 9.0], 4 mM MgCl2, 0.2 mM DTT, variable concentration of cold nicotinamide adenine dinucleotide (NAD) or NAD derivatives (SIGMA®, MO), 5-10 μg of the purified recombinant Sir2 proteins, and 10 μg of the histone H3 N-terminal tail peptide (amino acid 1-20) di-acetylated at positions 9 and 14 (Upstate Biotechnology™, NY). […] To detect the ADP-ribosylation activity, 8 μCi of NAD 5′-[α-^32P]triphosphate (˜1000 Ci/mmol, Amersham Pharmacia Biotech™, NJ) was added to the same reaction containing 1 μM cold NAD. Histone H3 protein (4 μg) (Roche Molecular Biochemicals™, IN) were used for this assay. All reaction mixtures were incubated at room temperature for 1 hr. Trichostatin A and coumermycin A1 (SIGMA™) were prepared in dimethylsulfoxide (DMSO, SIGMA®), and 5 μl of solvent or inhibitor was added to the reactions prior to adding Sir2 proteins.
Electron-spray mass spectroscopy (also referred to herein as mass spectroscopy) was done on the PE Sciex Model API365™ system. Matrix assisted laser desorption/ionization (MALDI) mass spectroscopy can also be used. The electron-spray mass spectroscopy data were analyzed by the BioMultiView Program™ (version 1.3.1). To detect the ADP-ribosylated intact H3 protein, the pellets were dissolved in 15 μl of Leammli sample buffer, boiled for 1.5 min and electrophoresed in a 10-20% gradient SDS-PAGE gel. The gel was stained with Coomassie Brilliant Blue to check equal loading of histones, dried, and exposed to KODAK® X-OMAT film. […]
The effects of a known inhibitor of mono-ADP-ribosyltransferases, coumermycin A1 (Banasik, M., et al., Mol. Cell. Biochem. 138: 185-187 (1994)) was evaluated. […]

mSir2α = biological target: T2, mSir2α (Mus musculus, UniProt Q923E4); assay: ADP-ribosylation assay, sensitivity of mSir2α to poly- and mono-ADP-ribosylation inhibitors (histone H2B, 32P-NAD); format: biochemical; details: 40 μM
T2 construct: ADP-ribosylase activity of bacterial recombinant full-length proteins of ySir2p and mSir2α was determined in in vitro assays; 6×His; made in house; host or cells: E. coli BL21 (DE3) pLysS with an extra copy of arginine tRNA gene, pET28a
T2 sequence (Q923E4 1-737): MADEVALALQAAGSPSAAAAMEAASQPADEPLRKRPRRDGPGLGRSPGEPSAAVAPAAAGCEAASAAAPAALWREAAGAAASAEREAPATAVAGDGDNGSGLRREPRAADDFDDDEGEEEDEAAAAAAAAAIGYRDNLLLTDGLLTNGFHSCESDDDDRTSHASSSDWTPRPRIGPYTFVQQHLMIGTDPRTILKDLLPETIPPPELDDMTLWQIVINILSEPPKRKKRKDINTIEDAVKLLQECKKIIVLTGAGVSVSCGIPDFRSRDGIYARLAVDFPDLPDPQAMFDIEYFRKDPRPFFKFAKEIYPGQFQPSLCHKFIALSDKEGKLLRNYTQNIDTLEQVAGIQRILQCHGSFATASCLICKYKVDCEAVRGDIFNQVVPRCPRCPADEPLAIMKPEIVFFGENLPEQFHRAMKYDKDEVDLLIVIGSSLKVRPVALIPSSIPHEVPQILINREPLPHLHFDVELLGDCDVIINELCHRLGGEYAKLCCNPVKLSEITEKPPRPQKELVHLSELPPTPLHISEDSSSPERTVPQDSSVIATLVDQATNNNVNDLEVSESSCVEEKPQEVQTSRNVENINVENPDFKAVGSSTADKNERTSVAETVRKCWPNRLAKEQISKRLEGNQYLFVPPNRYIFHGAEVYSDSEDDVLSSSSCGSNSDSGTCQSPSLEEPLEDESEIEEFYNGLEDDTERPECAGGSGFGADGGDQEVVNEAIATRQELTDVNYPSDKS
Procedure: as §1
To analyze histone modification, 25 μl of 100% trichloroacetic acid (TCA) solution was mixed to the reaction mixture and left on ice for 15 min. The protein precipitates were centrifuged at 4° C. and washed with 5 or 20% TCA solution twice. The pellets were dissolved in 15 μl of Leammli's sample buffer and boiled for 1.5 min. The proteins were electrophoresed in a 10-20% gradient SDS-PAGE gel. The gel was stained with COOMASSIE® Brilliant Blue R-250 (GibcoBRL Life Technologies™, Frederick, Md.) to check equal loading of histones, dried, and exposed to KODAK® X-OMAT film.
The sensitivity of the ADP-ribosylase activity of mSir2α to poly ADP-ribosylation inhibitors (3-aminobenzamide and benzamide) and mono-ADP-ribosylation inhibitors (novobiocin and coumermycin A1) was evaluated. (FIG. 4F).

[2] = test system: mono-ADP-ribosyltransferases; details: literature value; read-out: reported IC50 concentration; cited from earlier work
Sir2p [3] = biological target: T1, Sir2p; assay: NAD-dependent deacetylation of di-acetylated H3 peptide by recombinant yeast Sir2p (HPLC); format: biochemical; details: 200 μM
Procedure: as §2
After the incubation, the products were precipitated at −20° C. overnight by adding 50 μl of distilled water and 25 μl of 100% trichloroacetic acid (TCA) solution. For high pressure liquid chromatography (HPLC), the precipitates were reconstituted in 5% CH3CN and 0.1% trifluoroacetic acid (TFA) and run in the gradient concentration between 0.05% TFA and 0.043% TFA plus 80% CH3CN on Hewlett Packard Model 1100 HPLC system with 214TP52 column (VYDAC, CA). The chromatograms at the absorbance of 210 nm were digitally recorded and analyzed by Hewlett Packard ChemStation™ system (version A.06.03 [509]). Fractions of samples were collected every 1 min by Gilson™ Fraction Collector Model 203. Peptide sequencing was done by the Applied Biosystems PROCISE® 494 HT protein sequencing system. PTH amino acid chromatograms were recorded and analyzed by the ABI Model 610A2.1 data integration/analysis system.
The experiments employed purified recombinant Sir2p in a reaction with NAD and a peptide of the histone H3 amino-terminal tail (residues 1-20) di-acetylated at lysines 9 and 14. These lysines are hypoacetylated in silenced chromatin and mutations at these positions to glycine greatly reduce silencing in vivo (Thompson, J. S., et al., Nature 369: 245-247 (1994)). The products of a reaction containing 5 μg of recombinant yeast Sir2p (79 pmoles) (FIG. 8a), 10 μg of the H3 peptide (4.2 nmoles) increasing concentrations of NAD were analyzed s by high pressure liquid chromatography (HPLC).

CO[C@H]1[C@H](OC(=O)c2ccc(C)[nH]2)[C@H](O)[C@@H](Oc2ccc3c(O)c(NC(=O)c4c[nH]c(C(=O)Nc5c(O)c6ccc(O[C@H]7OC(C)(C)[C@@H](OC)[C@H](OC(=O)c8ccc(C)[nH]8)[C@@H]7O)c(C)c6oc5=O)c4C)c(=O)oc3c2C)OC1(C)C [coumermycin A1]
inhibition of NAD hydrolysis by Sir2p (Sir2p [1]): inhibited
inhibition of NAD hydrolysis by Sir2p (Sir2p [1]; listed as Coumermycin A1): inhibit
inhibition of ADP-ribosylation by Sir2p (Sir2p [1]): inhibited
inhibition of ADP-ribosylation by Sir2p (Sir2p [1]; listed as Coumermycin A1): inhibit
inhibition of ADP-ribosylation by mSir2α (mSir2α): strongly inhibited
IC50 [2]: 27 µM
inhibition of deacetylation of the H3 tail by Sir2p (Sir2p [3]): did not inhibit; also recorded: not capable of inhibiting
